The record followed here is PMC7534258, “Novel temporin L antimicrobial peptides: promoting self-assembling by lipidic tags to tackle superbugs” (Journal of Enzyme Inhibition and Medicinal Chemistry, 2020).

The structures appear in SMILES notation. ≈ marks a conversion by molar mass, not a printed value. Where a SMILES comes first, the peptide text is derived from it. [ ]: non-standard residue; d: D form. The star is where a group is joined. Heptanoyl = CCCCCCC(=O)*; Pentanoyl = CCCCC(=O)*

For data set [1], the system named is S. aureus ATCC 25923. Briefly: microbe, parasite or virus in culture. The note with it: for MIC: Staphylococcus aureus, ATCC25923, read-out: Antimicrobial activity (MIC) S. aureus ATCC 25923. Here is the method:
(§1) Staphylococcus aureus ATCC 25923, Pseudomonas aeruginosa ATCC 27853 and Klebsiella pneumoniae ATCC BAA-1705 (carbapenemase producer) were obtained from the American Type Culture Collection (Rockville, MD).
(§2) Identification was performed by sub-culturing on Tryptic Soy Agar (TSA, Becton Dickinson) and by biochemical characterisation using the Vitek II system (Biomerieux). The antimicrobial susceptibility testing of all isolates was determined using Vitek II system and results were interpreted according to European Committee on Antimicrobial Susceptibility Testing (EUCAST version 9.0, 2019). P. aeruginosa was cultured in Brain Heart Infusion broth (BHI, OXOID), S. aureus and K. pneumoniae were cultured in Tryptic Soya broth (TSB, OXOID), under aerobic conditions at 37 °C, for 24 h on an orbital shaker at 200 rpm.
(§3) Minimal inhibitory concentrations (MIC) of all the peptides were determined in Mueller–Hinton medium by the broth microdilution assay, following the procedure already described[22]^,[34]. The compounds were added to bacterial suspension in each well yielding a final cell concentration of 1 × 10^6 CFU/ml and a final compound concentration ranging from 0.78 to 100 µM. Negative control wells were set to contain bacteria in Mueller–Hinton broth plus the amount of vehicle (ethanol) used to dilute each compound. Positive controls included vancomycin (2 µg/ml), tobramycin (4 µg/ml), gentamycin (4 µg/ml), and imipenem (8 µg/ml).

Data set [2] concerns P. aeruginosa ATCC 27853. Nature of the data set: Broth microdilution MIC, reference strain. The format is cell-based, Pseudomonas aeruginosa. As to conditions: for MIC: Pseudomonas aeruginosa, ATCC27853, antibiotics, 16–18 h at 37 °C, read-out: Antimicrobial activity (MIC) P. aeruginosa ATCC 27853. Here is the method:
as §1, §2, §3

For data set [3], the system named is K. pneumoniae ATCC BAA-1705. Briefly: Broth microdilution MIC, reference strain. The format is cell-based, Klebsiella pneumoniae. The note with it: for MIC: Klebsiella pneumoniae, ATCCBAA1705, antibiotics, 16–18 h at 37 °C, read-out: Antimicrobial activity (MIC) K. pneumoniae ATCC BAA-1705. How it is done:
as §1, §2, §3

Data set [4] concerns Pa2. Briefly: microbe, parasite or virus in culture. As to conditions: Pseudomonas aeruginosa, read-out: Antimicrobial activity (MIC) Pa2. How it is done:
(§4) Clinical strains of P. aeruginosa (Pa1, Pa2 and Pa3), K. pneumoniae (KpCR1, KpCR2 and KpCR3), and S. aureus (Sa1, Sa2 and Sa3) were isolated from bloodstream or pulmonary infections, and belong to a collection of bacterial strains established between 2010 and 2018 at the Department of Molecular Medicine and Medical Biotechnologies (University Federico II, Naples) for research use.
as §2, §3

The subject of data set [5] is Sa3. Nature of the data set: microbe, parasite or virus in culture. The note with it: Staphylococcus aureus, MRSA, read-out: Antimicrobial activity (MIC) Sa3. How it is done:
as §4, §2, §3

Data set [6] relates to Sa1. Nature of the data set: microbe, parasite or virus in culture. As to conditions: Staphylococcus aureus, MRSA, read-out: Antimicrobial activity (MIC) Sa1. How it is done:
as §4, §2, §3

Data set [7] deals with KpCR1. Nature of the data set: microbe, parasite or virus in culture. The note with it: Klebsiella pneumoniae, read-out: Antimicrobial activity (MIC) KpCR1. Here is the method: as §4, §2, §3
The subject of data set [8] is Sa2. Nature of the data set: microbe, parasite or virus in culture. As to conditions: Staphylococcus aureus, MRSA, read-out: Antimicrobial activity (MIC) Sa2. Here is the method:
as §4, §2, §3

Data set [9] deals with Pa3. Briefly: microbe, parasite or virus in culture. As to conditions: Pseudomonas aeruginosa, read-out: Antimicrobial activity (MIC) Pa3. How it is done:
as §4, §2, §3

Data set [10] deals with KpCR2. Nature of the data set: microbe, parasite or virus in culture. As to conditions: Klebsiella pneumoniae, read-out: Antimicrobial activity (MIC) KpCR2. How it is done:
as §4, §2, §3

In data set [11] the test system is Pa1. Nature of the data set: microbe, parasite or virus in culture. As to conditions: Pseudomonas aeruginosa, PA1, read-out: Antimicrobial activity (MIC) Pa1. Here is the method:
as §4, §2, §3

For data set [12], the system named is KpCR3. Briefly: microbe, parasite or virus in culture. The note with it: Klebsiella pneumoniae, read-out: Antimicrobial activity (MIC) KpCR3. How it is done: as §4, §2, §3
Data set [13] relates to sheep red blood cells. The format is cell-based. The note with it: red cells of sheep, 24 h. How it is done:
Sheep red blood cells were purchased from OXOID, SR0051D.
The haemolytic assay was conducted following the procedure described. […] Controls were erythrocytes treated with vehicle (water).

The subject of data set [14] is HaCaT cells. The note with it: 24 h, at 6.25 µM.
Experimental: The human immortalised keratinocytes HaCaT cells (AddexBio, San Diego, CA, USA) were cultured in Dulbecco’s modified Eagle’s medium containing 4 mM glutamine (DMEMg), supplemented with 10% heat-inactivated foetal bovine serum (FBS) and 0.1 mg/ml of penicillin and streptomycin, at 37 °C and 5% CO2, in 25 cm^2 or 75 cm^2 flasks[33].
The colorimetric MTT assay was carried out to measure cellular metabolic activity in terms of cell viability[33]^,[36]. Viable cells are able to reduce, by active mitochondrial dehydrogenases, the yellow salt MTT to purple formazan crystals. Briefly, 4 × 10^4 HaCaT cells, suspended in DMEMg supplemented with 2% FBS, were plated in each well of a 96-well microtiter plate. After overnight incubation, at 37 °C in a 5% CO2 atmosphere, keratinocytes were treated for 24 h with fresh serum-free medium containing the peptides 3B and C at concentrations ranging from 3.12 µM to 25 µM. Afterward, the culture medium was replaced with Hank’s buffer supplemented with 0.5 mg/ml MTT and the plate was incubated at 37 °C and 5% CO2 for 4 h. At the end, acidified isopropanol was employed to dissolve the formazan crystals. Cell viability was calculated, with respect to cells not treated with peptide, by absorbance measurements at 570 nm using a microplate reader (Infinite M200; Tecan, Salzburg, Austria)[33]. […]
Data set [15] is described as follows: Critical aggregation concentration, Nile red fluorescence. As to conditions: aqueous solution, pH 7, Nile red, 1–200 µM peptide. Type of data set: physicochemical. How it is done: The solvatochromic fluorescent probe Nile red is widely used to determine the CAC of self-assembling peptides. […] Since Nile red is poorly soluble in water, there is a large preference to partition aggregates, which offer hydrophobic binding sites. Initially, 1 mM methanolic Nile red was prepared. Then, the methanolic Nile red was diluted with water in order to have a final concentration of 500 nM (solution A). The peptides 1B, 2B, 3B, C, were prepared as follows[39]: peptide stock solutions (0.4 mM) were prepared by dissolving the single peptides in water (1B, C) or tetrahydrofuran (3B, 2B) and sonicating for 15 min. Different aliquots were taken to prepare solutions of each peptide at different concentrations (1, 5, 10, 15, 20, 30, 50, 100 and 200 µM). Then, all solutions were diluted with water, sonicated for 15 min and freeze-dried. Finally, the peptide powders were dissolved with the right volume of solution A and allowed to stand in the dark place for 1 h before measurement. Emission spectra for each solution were measured by a Cary Eclipse Varian spectrometer. Spectra were taken between 570 and 700 nm at a slit width of 5 nm, using an excitation wavelength of 550 nm and a 10 nm slit width. The measurements were performed in triplicate. The data were analysed by plotting the maximum emission fluorescence corresponding wavelength (y) as a function of peptide concentration (x) and fitting with the sigmoidal Boltzmann equation: y=A1+A2/1+e^(x−x0/Δx)+A2 where the variables A1 and A2 correspond to the upper and lower limits of the sigmoid, x0 is the inflection point of the sigmoid and Δx is the parameter, which characterises the steepness of the function. The sigmoidal plot allows calculating the CAC value at x0.

Data set [16] is described as follows: ANTS/DPX leakage assay. As to conditions: ANTS/DPX-loaded LUVs, Gram-positive and Gram-negative mimicking. Here is the method: Large unilamellar vesicles (LUVs) and small unilamellar vesicles (SUVs) consisting of DOPG/CL (58/42 ratio in moles) and DOPG/DOPE/CL (63/23/12 ratio in moles), mimic the Gram-positive membrane and Gram-negative membrane, respectively. LUVs were prepared using the extrusion method as previously described. In particular, first lipid films were prepared by dissolving an appropriate amount of lipids in chloroform and fluorescent probes were added when necessary, then dried under a nitrogen gas stream and freeze-dried overnight. In all experiments, we used a final lipid concentration of 0.1 mM. For fluorescence experiments, buffer was added to dry lipid films and vortexed for 1 h; then the lipid suspension was freeze-thawed 6 times and extruded 10 times through polycarbonate membranes with 0.1 µm diameter pores to obtain LUVs. For circular dichroism measurements, peptide samples in SUVs were prepared as reported in the following protocol. Lipids were dissolved in chloroform and added to an equal volume of peptide solution dissolved in TFE containing appropriate peptide concentration. The samples were vortexed and lyophilised overnight. The dry samples were rehydrated with phosphate buffer 5 mM, pH 7.4 for 1 h and sonicated for 30 min.
The ANTS/DPX leakage assay was used to measure the ability of peptide to permeabilise and induce leakage of encapsulated dyes. After lipid films were prepared as previously described, ANTS (12.5 mM) and DPX (45 mM) were dissolved in 2 ml water, were added to lipid films and then lyophilised overnight. The lipid films with encapsulated ANTS and DPX were hydrated with PBS 1X buffer, vortexed for 1 h and then treated to obtain LUVs. The non-encapsulated ANTS and DPX were removed by gel filtration using a Sephadex G-50 column (1.5 cm × 10 cm) at room temperature. To start up the leakage experiment, a 2 mM peptide stock solution was prepared and LUVs were titrated with the peptide. Samples were excited at 385 nm (slit width, 5 nm) and fluorescence emission was recorded at 512 nm (slit width, 5 nm). After the addition of peptide, we evaluated leakage of encapsulated ANTS through a change in fluorescence spectra of ANTS and DPX. In particular, leakage is associated to an increase in ANTS fluorescence at 512 nm. Complete release of ANTS was obtained by using 0.1% Triton X, which caused the total destruction of liposomes. The percentage of leakage was calculated as % leakage =(Fi−F0)/(Ft−F0), where F0 represents the fluorescence of intact LUVs before the addition of peptide, and Fi and Ft denote the intensities of the fluorescence achieved after peptide and Triton-X treatment, respectively.

With `CNC(C)C1CCC(N)C(OC2C(N)CC(N)C(OC3OCC(C)(O)C(NC)C3O)C2O)O1` (stereo not drawn) [Gentamicin], the MIC is 1 µg/mL (≈ 2.09 µM) in [1]; 4 µg/mL (≈ 8.38 µM) in data set [2]; 4 µg/mL (≈ 8.38 µM) in [3]; more than 4 µg/mL in data set [4]; less than 1 µg/mL in [5]; less than 1 µg/mL in data set [6]. For the same compound, the MIC in [7] was 1 µg/mL (≈ 2.09 µM); in [8], less than 1 µg/mL; in data set [9], more than 4 µg/mL; in [10], more than 8 µg/mL; in [11] it was more than 4 µg/mL; in data set [12], 1 µg/mL (≈ 2.09 µM).
With `CCCCCCC(=O)N[C@@H](Cc1ccccc1)C(=O)N[C@H](C(=O)N1CCC[C@H]1C(=O)N[C@@H](Cc1c[nH]c2ccccc12)C(=O)N[C@@H](Cc1ccccc1)C(=O)N[C@@H](CO)C(=O)N[C@@H](CCCCN)C(=O)N[C@@H](Cc1ccccc1)C(=O)N[C@H](CC(C)C)C(=O)N[C@H](CCCCN)C(=O)N[C@@H](CCCNC(=N)N)C(=O)N[C@H](C(=O)N[C@@H](CC(C)C)C(N)=O)[C@@H](C)CC)C(C)C` [Compound 3B, CH3(CH2)5CO-Phe-Val-Pro-Trp-Phe-Ser-Lys-Phe-DLeu-DLys-Arg-Ile-Leu-NH2] (Heptanoyl-FVPWFSKF[dL][dK]RIL-NH2), in [1], the “Antimicrobial activity (MIC) S. aureus ATCC 25923” value turned out to be 3.12 µM. In addition, the “Antimicrobial activity (MIC) P. aeruginosa ATCC 27853” value in [2] is recorded as 25 µM. Besides, the “Antimicrobial activity (MIC) K. pneumoniae ATCC BAA-1705” value in data set [3] was found to be 50 µM. In addition, in [13], the haemolytic potency entry is recorded as “over 50%”. Besides, the “reduction in cell viability” value in [14] is on record as “about 50%”. Also, the “CAC (critical aggregation concentration)” value in data set [15] came to 9.33 µM. For the same compound, in data set [16], the “membrane leakage ability (in words)” value is “highest leakage ability”.
Consider `NC[C@H]1O[C@H](O[C@H]2[C@H](O)[C@@H](O[C@H]3O[C@H](CO)[C@@H](O)[C@H](N)[C@H]3O)[C@H](N)C[C@@H]2N)[C@H](N)C[C@@H]1O` [Tobramycin], for which the MIC in data set [1] was 1 µg/mL (≈ 2.14 µM); in data set [2] it was 4 µg/mL (≈ 8.56 µM); in [3], more than 4 µg/mL; in data set [4], 4 µg/mL (≈ 8.56 µM); in data set [5], 1 µg/mL (≈ 2.14 µM); in [6] it was 1 µg/mL (≈ 2.14 µM). Also, the MIC in [7] was 2 µg/mL (≈ 4.28 µM); in [8], less than 1 µg/mL; in [9], 4 µg/mL (≈ 8.56 µM); in data set [10], 2 µg/mL (≈ 4.28 µM); in data set [11], 4 µg/mL (≈ 8.56 µM); in [12] it was more than 4 µg/mL.
In the case of `CCCCC(=O)N[C@@H](Cc1ccccc1)C(=O)N[C@H](C(=O)N1CCC[C@H]1C(=O)N[C@@H](Cc1c[nH]c2ccccc12)C(=O)N[C@@H](Cc1ccccc1)C(=O)N[C@@H](CO)C(=O)N[C@@H](CCCCN)C(=O)N[C@@H](Cc1ccccc1)C(=O)N[C@H](CC(C)C)C(=O)N[C@H](CCCCN)C(=O)N[C@@H](CCCNC(=N)N)C(=O)N[C@H](C(=O)N[C@@H](CC(C)C)C(N)=O)[C@@H](C)CC)C(C)C` [Compound 2B, CH3(CH2)3CO-Phe-Val-Pro-Trp-Phe-Ser-Lys-Phe-DLeu-DLys-Arg-Ile-Leu-NH2] (Pentanoyl-FVPWFSKF[dL][dK]RIL-NH2), the “Antimicrobial activity (MIC) S. aureus ATCC 25923” value in data set [1] stood at 12.5 µM. The “Antimicrobial activity (MIC) P. aeruginosa ATCC 27853” value in [2] was 50 µM. For the same compound, the “Antimicrobial activity (MIC) K. pneumoniae ATCC BAA-1705” value in data set [3] was determined as 50 µM. Further, the “CAC (critical aggregation concentration)” value in [15] worked out at 20.9 µM. Moreover, the “membrane leakage ability (in words)” value in data set [16] is on record as “highest leakage ability”.
With `C[C@@H](O)[C@H]1C(=O)N2C(C(=O)O)=C(SCCN=CN)C[C@H]12` [Imipenem], the MIC in data set [1] was 0.5 µg/mL (≈ 1.67 µM); in data set [2], 4 µg/mL (≈ 13.4 µM); in data set [3] it was more than 8 µg/mL; in data set [4] it was more than 4 µg/mL; in data set [5], more than 8 µg/mL; in [6], 8 µg/mL (≈ 26.7 µM). The MIC in [7] is more than 8 µg/mL; in [8], more than 8 µg/mL; in data set [9], more than 4 µg/mL; in data set [10], more than 8 µg/mL; in [11] it was more than 4 µg/mL; in data set [12] it was more than 8 µg/mL.
